Measurements taken from patent US20160051560A1, “TREATMENTS INVOLVING ESLICARBAZEPINE OR ESLICARBAZEPINE ACETATE” (BIAL - PORTELA & Cª, S.A., priority 2013, published 2016).

System: patients with acute manic (including mixed) episode, bipolar I disorder
Experiment: Study BIA-2093-203: 3-week double-blind, randomised, placebo-controlled, dose-titration study in acute mania
Format: in vivo, human
Details: for YMRS score absolute change from V2 (1 Day) to V7 (21 Days), Mean ± SD / YMRS score absolute change from V2 (1 Day) to V7 (21 Days), Median (range): ITT
Description: Two 3-week multicentre, double-blind, randomised, placebo-controlled studies in acute mania (study BIA-2093-203: dose titrated by response, eslicarbazepine acetate (ESL) 600-1800 mg or 800-2400 mg, once-daily; study BIA-2093-204: fixed doses of 600, 1200 and 1800 mg, once-daily) were followed by a recurrence prevention study consisting of a 2-week open-label period (900 mg, once-daily) continued by a double-blind, parallel-group, fixed dose (300, 900 and 1800 mg, once-daily) period for a minimum of 6 months. The primary endpoint was change in Young Mania Rating Scale (YMRS) in studies BIA-2093-203 and BIA-2093-204, and the proportion of no worsening patients in the Clinical Global Impressions-Bipolar Version (CGI-BP) in study BIA-2093-205.
Study BIA-2093-203 (EudraCT No 2005-002131-27) followed a multicentre, double-blind, randomised, parallel-group, placebo-controlled, dose-titration design.
This study was conducted at 23 centres across Europe. Patients were randomised (3:3:2) to one of the following treatment groups: (1) ESL starting with 800 mg once daily (QD) and up-titrated in 800 mg steps until 2400 mg QD (maximum dose) according to clinical response, (2) ESL starting with 600 mg QD and up-titrated in 600 mg steps until 1800 mg QD (maximum dose) according to clinical response, and (3) Placebo QD. Patients were followed for up to 3 weeks. The study schedule consisted of a screening visit (V1), randomisation visit (V2, Day 1), and subsequent visits to evaluate clinical response (V3, Day 4; V4, Day 7; V5, Day 10; V6, Day 14 and V7, Day 21). In patients showing no improvement of symptoms, the dose of study medication was increased every 3 days until the maximum doses were reached. […] At the end of the 3-week treatment period, patients who responded to treatment had the option of entering the recurrence prevention study (Study BIA-2093-205).
Studies BIA-2093-203 and BIA-2093-204 enrolled patients with ages ≧18 years, currently displaying an acute manic (including mixed) episode and with a documented diagnosis of bipolar I disorder according to the DSM-IV criteria (2). Eligible patients should have a Young Mania Rating Scale (YMRS) total score ≧20, with symptoms of the current manic episode starting within two weeks prior to randomization. Patients were excluded if they had history of schizophrenia or schizoaffective disorder, psychotic features or rapid cycling. Patients were also excluded if they were treated with carbamazepine, oxcarbazepine or a depot-neuroleptic. Previous treatment with ESL or history of unresponsiveness, intolerance or hypersensitivity to other dibenzazepine compounds (carbamazepine, oxcarbazepine or licarbazepine) also constituted criteria for exclusion. Patients with clinical relevant risk of harm to self or others and history of substance abuse were also excluded. Women were excluded if they were pregnant or breast-feeding, or if of childbearing potential they were unable to use double-barrier contraception.
The following validated instruments were used: YMRS (20), the Clinical Global Impressions-Bipolar Version (CGI-BP) scale (21) and the Montgomery-Åsberg Depression Rating Scale (MADRS) (22). The YMRS score is the sum of 11 scoring items, ranging from 0 to 60 points; higher scores indicate higher mania symptomatology (20). The CGI-BP scale measures severity and treatment-related improvement in mania, depression and overall illness categories. It comprises 3 scales: severity of illness (1—normal to 7—very severely ill, in which 3—mildly ill was used as cut-off value for statistical analysis), change from preceding phase and worst phase (1—very much improved to 7—very much worse, and 8—not applicable) (21). The MADRS score is calculated as the sum of the 10 scoring items, ranging from 0 to 60 points: higher scores indicate higher depression symptomatology (22). […]

[1] = ESL 600 mg (600-1800 mg QD titrated), n = 63
[2] = ESL 800 mg (800-2400 mg QD titrated), n = 57
[3] = ESL 800 mg, n = 57, only study 203

CC(=O)O[C@H]1Cc2ccccc2N(C(N)=O)c2ccccc21 [ESL, (S)-10-acetoxy-10,11-dihydro-5H-dibenz[b,f]azepine-5-carboxamide]
MADRS scores under treatment with ESL as compared to placebo (ANCOVA showed no significant difference between the treatment groups at visit 7): apparent improvement | absolute difference between ESL treatment group and placebo for the YMRS total score (ESL 600 mg): 2.2 | YMRS score absolute change from V2 (1 Day) to V7 (21 Days), Mean ± SD [1]: −12.2 ± 7.9 | YMRS score absolute change from V2 (1 Day) to V7 (21 Days), Median (range) [1]: −14.0 (−25.0, 14.0) | CGI-BP score changes for mania and overall bipolar illness compared to placebo (ESL 600 mg group, from worst phase only): significant improvement | absolute difference between ESL treatment group and placebo for the YMRS total score (ESL 800 mg): 4.0 | YMRS score absolute change from V2 (1 Day) to V7 (21 Days), Mean ± SD [2]: −14.1 ± 8.9 | YMRS score absolute change from V2 (1 Day) to V7 (21 Days), Median (range) [2]: −16.0 (−33.0, 22.0) | CGI-BP score changes for mania and overall bipolar illness compared to placebo (ESL 800 mg group, from preceding and worst phase): significant improvement | proportion of patients in V7 classified as normal (CGI-BP severity of illness scale) vs placebo (ESL 800 mg group, mania and overall bipolar illness): significant differences | Any Adverse Events [3]: 29 (50.9) Number (%) of patients | Diarrhoea [3]: 2 (3.5) Number (%) of patients | Dizziness [3]: 5 (8.8) Number (%) of patients | Headache [3]: 5 (8.8) Number (%) of patients | Nausea [3]: 4 (7.0) Number (%) of patients | Paraesthesia oral [3]: 0 (0.0) Number (%) of patients | Somnolence [3]: 1 (1.8) Number (%) of patients | Vomiting [3]: 2 (3.5) Number (%) of patients | reduction in YMRS total score as compared with placebo, statistical significance (ESL 600-1800 mg and ESL 800-2400 mg groups): None of the treatment groups showed a reduction in YMRS total score as compared with placebo that was statistically significant | proportion of patients in full remission (YMRS score <12) at V7 compared to the placebo group (ESL 800-2400 mg group): significantly higher proportion of patients were in full remission | response rate (≧50% improvement or <12 points in the YMRS score) (ESL 800-2400 mg group): 66.7% | reduction in YMRS total score (ESL 800-2400 mg vs placebo −10.3 (p=0.0523)): −14.2
